Test results published in patent US7582649B2, “Hydroxy alkyl substituted 1,3,8-triazaspiro[4.5]decan-4-one derivatives useful for the treatment of ORL-1 receptor mediated disorders” (Janssen Pharmaceutica, NV, priority 2002, dated 2009).

Key:
mu opioid receptor = mu opioid receptor (Homo sapiens, UniProt P35372); assay: Filtration binding assay: mu opioid receptor
kappa opioid receptor = kappa opioid receptor (Homo sapiens, UniProt P41145); assay: Filtration binding assay: kappa opioid receptor
kappa opioid receptor, sequence (P41145 whole entry): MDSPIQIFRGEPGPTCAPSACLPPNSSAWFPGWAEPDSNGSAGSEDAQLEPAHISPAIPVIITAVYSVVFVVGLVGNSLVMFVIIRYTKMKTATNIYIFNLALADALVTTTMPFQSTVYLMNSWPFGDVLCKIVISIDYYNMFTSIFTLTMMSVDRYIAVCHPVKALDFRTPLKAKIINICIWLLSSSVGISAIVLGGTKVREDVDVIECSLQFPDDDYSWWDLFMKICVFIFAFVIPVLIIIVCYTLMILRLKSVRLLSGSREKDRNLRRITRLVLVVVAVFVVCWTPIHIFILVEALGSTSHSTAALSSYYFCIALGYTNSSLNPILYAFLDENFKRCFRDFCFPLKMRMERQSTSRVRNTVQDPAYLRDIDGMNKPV

mu opioid receptor, sequence (P35372 whole entry): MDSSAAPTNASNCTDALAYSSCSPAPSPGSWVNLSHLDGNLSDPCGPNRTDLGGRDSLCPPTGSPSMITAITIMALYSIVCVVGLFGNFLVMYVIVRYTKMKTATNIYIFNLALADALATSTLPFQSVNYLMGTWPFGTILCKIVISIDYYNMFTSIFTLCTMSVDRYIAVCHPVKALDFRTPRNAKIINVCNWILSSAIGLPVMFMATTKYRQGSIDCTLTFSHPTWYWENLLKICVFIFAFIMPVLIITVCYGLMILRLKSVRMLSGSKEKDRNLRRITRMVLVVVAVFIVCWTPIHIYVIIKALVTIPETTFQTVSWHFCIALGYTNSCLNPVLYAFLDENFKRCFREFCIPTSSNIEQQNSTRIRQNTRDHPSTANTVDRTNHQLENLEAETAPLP

SMILES | IC50 (mu opioid receptor) [nM] | IC50 (kappa opioid receptor) [nM] | Ki (mu opioid receptor) [nM]
COc1ccc(CNC[C@H](O)CN2CN(c3ccc(F)cc3)C3(CCN(C4Cc5cccc6cccc4c56)CC3)C2=O)cc1OC (mixture of isomers) [compound 307] | 750 | 210 | 
O=C1N(C[C@@H](O)CN(CCc2ccccc2)Cc2ccccc2)CN(c2ccc(F)cc2)C12CCN(C1Cc3cccc4cccc1c34)CC2 (mixture of isomers) [compound 313] | 330 | 500 | 
O=C1N(C[C@@H](O)CNCc2cc(C(F)(F)F)cc(C(F)(F)F)c2)CN(c2ccc(F)cc2)C12CCN(C1Cc3cccc4cccc1c34)CC2 (mixture of isomers) [compound 319] | 320 | 580 | 
COc1cc(CNC[C@H](O)CN2CN(c3ccc(F)cc3)C3(CCN(C4Cc5cccc6cccc4c56)CC3)C2=O)cc(OC)c1OC (mixture of isomers) [compound 320] | 340 | 120 | 
COc1cc(CNC[C@H](O)CN2CN(c3ccc(F)cc3)C3(CCN(C4Cc5cccc6cccc4c56)CC3)C2=O)cc(OC)c1 (mixture of isomers) [compound 324] | 110 | 230 | 
O=C1N(C[C@@H](O)CN2CCN(c3cccc(C(F)(F)F)c3)CC2)CN(c2ccc(F)cc2)C12CCN(C1Cc3cccc4cccc1c34)CC2 (mixture of isomers) [compound 333] | 240 | 390 | 
O=C1N(C[C@@H](O)CN2CCN(C(c3ccccc3)c3ccc(Cl)cc3)CC2)CN(c2ccc(F)cc2)C12CCN(C1Cc3cccc4cccc1c34)CC2 (mixture of isomers) [compound 337] | 550 | 250 | 
CCCCN(CCCC)CCCNC[C@H](O)CN1CN(c2ccc(F)cc2)C2(CCN(C3Cc4cccc5cccc3c45)CC2)C1=O (mixture of isomers) [compound 338] | 740 | 140 | 
COc1cc(OC)c(CNC[C@H](O)CN2CN(c3ccc(F)cc3)C3(CCN(C4Cc5cccc6cccc4c56)CC3)C2=O)c(OC)c1 (mixture of isomers) [compound 367] | 1860 | 360 | 
O=C1N(C[C@@H](O)CNCCc2ccccc2)CN(c2ccc(F)cc2)C12CCN(CC1CCCCCCC1)CC2 [Compound #11] | 820 | 290 | 
O=C1N(C[C@@H](O)CNCc2ccc(C(F)(F)F)cc2)CN(c2ccc(F)cc2)C12CCN(CC1CCCCCCC1)CC2 [Compound #29] | 5410 | 410 | 
O=C1N(C[C@@H](O)CNCc2cccc(C(F)(F)F)c2)CN(c2ccc(F)cc2)C12CCN(CC1CCCCCCC1)CC2 [Compound #33] | > 10000 | 1160 | 
COc1cc(CNC[C@H](O)CN2CN(c3ccc(F)cc3)C3(CCN(CC4CCCCCCC4)CC3)C2=O)cc(OC)c1OC [Compound #43] | 540 | 320 | 
O=C1N(C[C@@H](O)CNCc2ccccc2Br)CN(c2ccc(F)cc2)C12CCN(CC1CCCCCCC1)CC2 [Compound #44] | 1130 | 160 | 
O=C1N(C[C@@H](O)CN2CCc3ccccc3C2)CN(c2ccc(F)cc2)C12CCN(CC1CCCCCCC1)CC2 [Compound #72] | 1840 | 790 | 
CCCCN(Cc1ccccc1)C[C@H](O)CN1CN(c2ccc(F)cc2)C2(CCN(Cc3c(C)c(C)c(C)c(C)c3C)CC2)C1=O [Compound #280, 3-[3-(Benzyl-butyl-amino)-2-(S)-hydroxy-propyl]-1-(4-fluoro-phenyl)-8-pentamethylphenylmethyl-1,3,8-triaza-spiro[4.5]decan-4-one] | 2520 | 1080 | 
Cc1cccc2cccc(CN3CCC4(CC3)C(=O)N(C[C@H](O)CN(C)C)CN4c3ccc(F)cc3)c12 [Compound #441, 3-(3-Dimethylamino-2-(R)-hydroxy-propyl)-1-(4-fluoro-phenyl)-8-(8-methyl-naphthalen-1-ylmethyl)-1,3,8-triaza-spiro[4.5]decan-4-one] | > 10000 | > 10000 | 
CCCCN(Cc1ccccc1)C[C@H](O)CN1CN(c2ccc(F)cc2)C2(CCN(Cc3c(Cl)cccc3C(F)(F)F)CC2)C1=O [Compound #456, 3-[3-(Benzyl-butyl-amino)-2-(S)-hydroxy-propyl]-8-(2-chloro-6-trifluoromethyl-benzyl)-1-(4-fluoro-phenyl)-1,3,8-triaza-spiro[4.5]decan-4-one] | > 10000 | > 10000 | 

SMILES | IC50 (mu opioid receptor) [nM] | IC50 (kappa opioid receptor) [nM] | Ki (mu opioid receptor) [nM]
CNC[C@@H](O)CN1CN(c2ccc(F)cc2)C2(CCN(Cc3cccc4cccc(C)c34)CC2)C1=O [Compound #660, 1-(4-Fluoro-phenyl)-3-(2-(R)-hydroxy-3-methylamino-propyl)-8-(8-methyl-naphthalen-1-ylmethyl)-1,3,8-triaza-spiro[4.5]decan-4-one] |  |  | 870
O=C1N(C[C@@H](O)CNc2ccc(-c3ccccc3)cc2)CN(c2ccc(F)cc2)C12CCN(CC1CCCCCCC1)CC2 [compound 9] | 940 | 1400 | 
O=C1N(C[C@@H](O)CNCc2cc(F)ccc2F)CN(c2ccc(F)cc2)C12CCN(CC1CCCCCCC1)CC2 [compound 12] | 520 | 200 | 
O=C1N(C[C@@H](O)CN2C=CCC2)CN(c2ccc(F)cc2)C12CCN(CC1CCCCCCC1)CC2 [compound 70] | 630 |  | 
CN(C)c1ccc(CNC[C@@H](O)CN2CN(c3ccccc3)C3(CCN(CCc4ccccc4-c4cccs4)CC3)C2=O)cc1 [compound 139] | 103 |  | 
O=C1N(C[C@H](O)CNCCc2cc3ccc(F)cc3[nH]2)CN(c2ccccc2)C12CCN(CCc1ccccc1-c1cccs1)CC2 [compound 142] | 104 |  | 
COc1ccc(CCNC[C@@H](O)CN2CN(c3ccccc3)C3(CCN(CCc4ccccc4-c4cccs4)CC3)C2=O)cc1 [compound 145] | 104 |  | 
O=C1N(C[C@@H](O)CN(CCc2ccccc2)Cc2ccccc2)CN(c2ccccc2)C12CCN(CCc1ccccc1-c1cccs1)CC2 [compound 230] | 152 |  | 
O=C1N(C[C@@H](O)CNCCN2CCOCC2)CN(c2ccc(F)cc2)C12CCN(Cc1ccc3ccccc3c1)CC2 [compound 259] | 500 |  | 
O=C1N(C[C@@H](O)CNCCc2ccc3c(c2)OCO3)CN(c2ccc(F)cc2)C12CCN(Cc1ccc3ccccc3c1)CC2 [compound 262] | 850 |  | 
COc1ccc(CCN(C)C[C@H](O)CN2CN(c3ccc(F)cc3)C3(CCN(Cc4ccc5ccccc5c4)CC3)C2=O)cc1OC [compound 263] | 590 |  | 
O=C1N(C[C@H](O)CNCCc2ccc3c(c2)OCO3)CN(c2ccc(F)cc2)C12CCN(Cc1ccc(Cl)cc1)CC2 [compound 268] | 950 |  | 
COc1cc(CCNC[C@@H](O)CN2CN(c3ccc(F)cc3)C3(CCN(Cc4ccc(Cl)cc4)CC3)C2=O)c([N+](=O)[O-])cc1OC [compound 269] | 2490 |  | 
COc1ccc(CCN(C)C[C@H](O)CN2CN(c3ccc(F)cc3)C3(CCN(Cc4ccc(Cl)cc4)CC3)C2=O)cc1OC [compound 270] | 410 |  | 
O=C1N(C[C@@H](O)CN(Cc2ccccc2)C[C@@H]2CCCC[C@@H]2O)CN(c2ccc(F)cc2)C12CCN(CC1CCCCCCC1)CC2 [compound 290] | 930 |  | 
CNCCNC[C@@H](O)CN1CN(c2ccc(F)cc2)C2(CCN(Cc3cccc4cccc(C)c34)CC2)C1=O [compound 661] |  |  | 800
Cc1cccc2cccc(CN3CCC4(CC3)C(=O)N(C[C@H](O)CN3CC[C@@H](N(C)C)C3)CN4c3ccc(F)cc3)c12 [compound 708] |  |  | 490
Cc1cccc2cccc(CN3CCC4(CC3)C(=O)N(C[C@H](O)CN3CCC(O)C3)CN4c3ccc(F)cc3)c12 (some centres unmarked) [compound 712] |  |  | 1950
